Where two headings read alike, the source gives them in different places.
Assays:
[1] = tested on: adenomas in small intestines and colons of APC^min/+ mice; assay: APC^min/+ model of spontaneous CRC; format: in vivo, C57BL/6J-APC^min/+ mice; details: 20 mg/kg intraperitoneal injection every two days for 12 weeks
Experimental: C57BL/6J-APC^min/+ mice were obtained from Jackson Laboratory. […] The mice were sacrificed in the twentieth week. Tumor numbers were calculated, and tumors were imaged after longitudinal dissection of the small intestine and colon. Then, the small intestines and colons were sectioned and stained for immunohistochemistry.

SIRT6 [2] = target: T1, SIRT6 (Homo sapiens, UniProt Q8N6T7); assay: Histone H3 deacetylation in HEK293T cells (western blot); format: cell-based; parameters: endogenous in cells; host or cells: HEK293T; details: dose-dependent
Experimental: Western blot analysis was performed as described previously. […] After 48 h of treatment, the cells were lysed with 1× SDS and separated by SDS-PAGE, followed by incubation with specific primary antibodies overnight at 4 °C and then with HRP-linked anti-rabbit IgG (#7074, Cell Signaling Technology) or HRP-linked anti-mouse IgG (#7076, Cell Signaling Technology). An Immobilon Western Chemiluminescent HRP Substrate Kit (Merck Millipore) was used for detection. Information regarding the primary antibodies can be found in Table S6. Quantification of western blot data was performed using ImageJ V4.

FHC = assay: Cell proliferation, CCK-8, non-cancerous colon cell line; format: cell-based; details: Homo sapiens, CCK-8, 48 h, Figure S6, mean ± s.e.m. of three experiments
FHC cells = assay: LDH assay of cytotoxicity in FHC cells; format: cell-based; details: 48 h
Experimental: (§1) Cell cytotoxicity was assessed by measuring LDH release from damaged or dead cells using a Cytotoxicity LDH Assay Kit-WST (Dojindo) following the manufacturer's instructions. Briefly, 5 × 10^3 cells per well were plated in 96-well plates. […] The final DMSO concentration in the medium was 0.1%. The amount of LDH leakage from the cells was determined by measuring the absorbance at 490 nm using a microplate reader (Synergy H4 Hybrid Reader, BioTek). The percentage of cytotoxicity was calculated as follows: [(test sample - low control)/ (high control - low control)] × 100, where low control is the absorbance of the culture medium without any added extract, and high control is the absorbance of the culture medium in which the cells were treated with 1% (v/v) Triton X-100 to achieve 100% LDH release. Each data point is presented as the mean ± s.d. of three independent experiments.

26 CRC cell lines = assay: Cell proliferation, CCK-8, panel of 26 CRC cell lines; format: cell-based; details: Homo sapiens, CCK-8, 48 h
Experimental: Cell proliferation was evaluated using a Cell Counting Kit-8 (CCK-8) (Dojindo) following the manufacturer's instructions. Briefly, CRC cells were plated in 96-well plates at a density of 5 × 10^3 cells per well. […] Cells treated with DMSO were used as the […] controls, and the final DMSO concentration in the medium was 0.1%. After 48 h of treatment, 10 μL of CCK-8 solution was added to every well and incubated for 1 h at 37 °C. Then, a microplate reader (Synergy H4 Hybrid Reader, BioTek) was used to measure the absorbance of the solvent at 450 nm. The background of drug and culture medium has been deducted in each well. The relative cell proliferation of each treatment group was expressed as the percentage change relative to the […] control group. Each data point is the mean ± s.d. of two or three independent experiments.

[3] = tested on: CRC cells (HCT116, HT29, and SW480); assay: Calcein-AM/PI live-dead double staining; format: cell-based; details: 10 μM MDL-811, CRC cells
Experimental: Live-dead cell staining was performed following the protocol of a Calcein-AM/PI Double Stain Kit (Yeasen). Briefly, 3 × 10^4 cells per well were seeded into 24-well plates. […] Then, cell images were acquired with a fluorescence microscope (Nikon Inverted Research Microscope Eclipse Ti). For each assay, five random fields of view per well were imaged at 10× magnification.

[4] = Pharmacokinetic studies in mice; format: in vivo; details: male, mouse, plasma, C57BL/6J mice
Experimental: Pharmacokinetic studies were performed by Shanghai Medicilon Inc, China, following standard protocols. Briefly, six-week-old male C57BL/6J mice were grouped randomly (n = 5 per group). […] Two administration formulations were prepared in the vehicle with 5% DMSO, 10% Solutol and 85% saline, with the pH adjusted to 7.0-8.0. After treatment, the mice were sacrificed, and their plasma samples were collected at 5 min, 15 min, 30 min, 1 h, 2 h, 4 h, 8 h, and 24 h. The drug concentration in plasma was analyzed by LC-MS/MS. Pharmacokinetic parameters were calculated using Analyst Software 1.6.3 from mean plasma concentration-time profiles. The area under the curve (AUC) was measured from time versus concentration data by the linear trapezoidal rule. […] The calculation was normalized to relative doses.

[5] = tested on: CRC cell lines (HCT116, HT29, SW480); assay: LDH assay of cytotoxicity in CRC cell lines; format: cell-based; details: 48 h, pharmacological concentrations
Experimental: as §1

SIRT6 [6] = target: T1, SIRT6; assay: FDL assay of SIRT6 deacylase activity (EALPKK-Myr-AMC); format: biochemical; parameters: WT (wild-type) full-length human SIRT6 was inserted into the pET28a-LIC vector; made in house; host or cells: Escherichia coli BL21 (DE3); details: myristoyl peptide EALPKK-Myr-AMC
Experimental: According to previously described methods, WT (wild-type) full-length human SIRT6 was inserted into the pET28a-LIC vector (Addgene plasmid #26094). The plasmid was transformed into Escherichia coli BL21 (DE3) cells. Protein was purified using a nickel column and gel filtration. Purified protein was dialyzed into assay buffer (50 mM Tris-HCl [pH 8.0], 137 mM NaCl, 2.7 mM KCl, and 1 mM MgCl2) and used in all in vitro assays performed in this study.
[…], 5 μM WT SIRT6 was incubated in a 50-μL reaction mixture (2.5 mM NAD^+, […], compounds/DMSO, and assay buffer) at 37 °C for 2 h, quenched with 40 mM nicotinamide, and developed with 6 mg/mL trypsin for another 30 min at 25 °C. […] Fluorescence intensity was measured using a microplate reader (Synergy H4 Hybrid Reader, BioTek) at excitation and emission wavelengths of 360 nm and 460 nm, respectively. EC50 values were calculated by fitting the data points with the dose-response function in GraphPad Prism V7 (GraphPad Software). Each experiment was independently repeated three times in technical triplicates.

[7] = 30 mg/kg, IP 30 mg/mL, mean of five mice

T1 sequence (Q8N6T7 whole entry): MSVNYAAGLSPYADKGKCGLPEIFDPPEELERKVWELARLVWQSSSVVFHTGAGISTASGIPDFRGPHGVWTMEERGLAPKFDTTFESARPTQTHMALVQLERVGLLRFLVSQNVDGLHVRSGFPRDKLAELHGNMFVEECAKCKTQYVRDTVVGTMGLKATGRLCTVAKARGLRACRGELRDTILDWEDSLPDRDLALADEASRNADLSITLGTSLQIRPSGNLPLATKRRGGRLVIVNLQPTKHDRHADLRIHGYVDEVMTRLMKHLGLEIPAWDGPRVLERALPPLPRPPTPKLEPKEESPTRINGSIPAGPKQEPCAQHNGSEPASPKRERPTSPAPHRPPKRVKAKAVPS

**Q.** With `Cc1cc(F)c(Br)cc1NS(=O)(=O)c1ccc(NS(=O)(=O)c2cc(Cl)cc(Cl)c2)cc1CN1CCOC[C@H]1C` [MDL-811] as the compound, how does the “number and size of adenomas” value [1] read?
**A.** significantly reduced the number and size of adenomas

**Q.** What about the “deacetylation of H3K9Ac, H3K18Ac, and H3K56Ac” value (SIRT6 [2]) of the same compound?
**A.** significantly enhanced the deacetylation of SIRT6 (H3K9Ac, H3K18Ac, and H3K56Ac)

**Q.** What about the IC50 (FHC) of the same compound?
**A.** 24.4 ± 0.5 µM

**Q.** And the “cytotoxicity (LDH release)” value (FHC cells)?
**A.** low cytotoxic effect

**Q.** And the IC50 (26 CRC cell lines; more than 75% (20 of 26) of the CRC cell lines, read-out: IC50 in 20 of 26 CRC cell lines)?
**A.** < 25 µM

**Q.** What about the IC50 (26 CRC cell lines; range over 26 CRC cell lines, read-out: IC50 values across the 26 CRC cell lines) of the same compound?
**A.** 4.7 to 61 µM

**Q.** And the “cell death, live-dead double staining” value [3]?
**A.** did not cause observable cell death

**Q.** And the AUC(0-inf) [4, 7]?
**A.** 19700 ng·h/mL

**Q.** What about the half-life [4, 7] of the same compound?
**A.** 1.38 h

**Q.** And the AUC0-t ([4]; 30 mg/kg, IP 30 mg/mL, mean of five mice, read-out: AUC0-t)?
**A.** 19600 ng·h/mL

**Q.** What about the Cmax ([4]; 30 mg/kg, IP 30 mg/mL, mean of five mice, read-out: Cmax) of the same compound?
**A.** 5330 ng/mL

**Q.** And the MRT ([4]; 30 mg/kg, IP 30 mg/mL, mean of five mice, read-out: MRT)?
**A.** 2.63 h

**Q.** What about the tmax ([4]; 30 mg/kg, IP 30 mg/mL, mean of five mice, read-out: tmax) of the same compound?
**A.** 0.5 h

**Q.** And the bioavailability ([4]; intraperitoneal, IP 30 mg/mL vs IV, ratio of AUC normalized to dose, read-out: F (bioavailability))?
**A.** 93%

**Q.** What about the “cytotoxicity (LDH release)” value [5] of the same compound?
**A.** minimal cytotoxic effect

**Q.** What about the “effect on SIRT6 deacylation” value (SIRT6 [6]) of the same compound?
**A.** no apparent effect

— paper PMC7255010, “Small-molecule activating SIRT6 elicits therapeutic effects and synergistically promotes anti-tumor activity of vitamin D3 in colorectal cancer” (Theranostics, 2020)
